Columns and labels:
Rat Hepatic V1 Receptors = molecular target: T1, Rat Hepatic V1 Receptors (Rattus norvegicus, UniProt P30560); assay: Binding Assay to Rat Hepatic V1 Receptors; conditions: rat liver membranes; read-out: V1 IC50
T1 construct: Rat liver plasma membranes expressing the vasopressin V1 receptor subtypes; from tissue; host or cells: rat liver plasma membranes

Vasopressin V2 = Vasopressin V2 Antagonist Activity in Conscious Hydrated Rats; assay type: in vivo, rat; conditions: AVP 0.4 μg/kg i.p.
Experimental: Vasopressin V2 Antagonist Activity in Conscious Hydrated Rats
Conscious hydrated rats are treated with compounds under study from 0.1 to 100 mg/kg orally or vehicle. Two to four rats are used for each compound. One hour later, arginine vasopressin (AVP, antidiuretic hormore, ADH) dissolved in peanut oil is administered at 0.4 μg/kg intraperitoneally. Two rats in each test would not receive arginine vasopressin but only the vehicle (peanut oil) to serve as water-loading control. Twenty minutes later each rat is given 30 mL/kg of deionized water orally by gavage and is placed individually in a metabolic cage equipped with a funnel and a graduated glass cylinder to collect urine for four hours. Urine volume is measured and osmolality analyzed by use of a Fiske One-Ten osmometer (Fiske Assoc., Norwood, Mass., USA). Urinary sodium, potassium, and chloride are analyzed by use of ion-specific electrodes in a Beckman E3 (Electrolyte 3) Analyzer.

[1] = molecular target: T2, Rat Kidney Medullary V2 Receptors (Rattus norvegicus, UniProt Q00788); assay: Binding Assay to Rat Kidney Medullary V2 Receptors; conditions: rat kidney medulla membranes; read-out: V2 IC50
T2 construct: Medullary tissues from rat kidneys are dissected out; from tissue; host or cells: rat kidney medulla membranes
Method in brief: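 Membranes were prepared from rat kidney medulla and stored in 50.0 mM Tris-HCl pH 7.4 with 0.2% BSA and 0.1 mM PMSF. Radioligand competition ran 120 min at bench temperature, with 1.0 μM unlabeled ligand defining nonspecific binding. Compounds were added in 50% DMSO; filtration, tritium scintillation counting, IC50 from competition analysis.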

Vasopressin V1 = Vasopressin V1 Antagonist Activity in Conscious Rats (vasopressin vasopressor response); assay type: in vivo, rat; design: Average Change: unit not given here; conditions: for % Inhibition / Average Change: SHR
Method in brief: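 Conscious rats are restrained supine, and under local 2% procaine a PE 10/20 cannula is passed through the ventral caudal tail artery into the lower abdominal aorta. The caudal vein is cannulated for intravenous dosing. Blood pressure is recorded with a Statham P23Db transducer, and vasopressin injections are repeated after compound dosing. Percent antagonism is calculated against the pre-drug vasopressor response taken as 100%.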

[2] = 10 mg/kg i.v., VAS 0.01 i.u./kg, 30 min
[3] = 10 mg/kg i.v., VAS 0.01 i.u./kg, 60 min
[4] = 10 mg/kg i.v., VAS 0.01 i.u./kg, 90 min
[5] = 10 mg/kg i.v., VAS 0.01 i.u./kg, 120 min
[6] = 10 mg/kg i.v., VAS 0.01 i.u./kg, 180 min
[7] = 10 mg/kg i.v., VAS 0.01 i.u./kg, 240 min
[8] = 10 mg/kg i.v., VAS 0.01 i.u./kg, 300 min
[9] = 10 mg/kg i.v., VAS 0.02 i.u./kg, 30 min
[10] = 10 mg/kg i.v., VAS 0.02 i.u./kg, 60 min
[11] = 10 mg/kg i.v., VAS 0.02 i.u./kg, 90 min
[12] = 10 mg/kg i.v., VAS 0.02 i.u./kg, 120 min
[13] = 10 mg/kg i.v., VAS 0.02 i.u./kg, 180 min
[14] = 10 mg/kg i.v., VAS 0.02 i.u./kg, 240 min
[15] = 10 mg/kg i.v., VAS 0.02 i.u./kg, 300 min

T1 sequence (P30560 whole entry): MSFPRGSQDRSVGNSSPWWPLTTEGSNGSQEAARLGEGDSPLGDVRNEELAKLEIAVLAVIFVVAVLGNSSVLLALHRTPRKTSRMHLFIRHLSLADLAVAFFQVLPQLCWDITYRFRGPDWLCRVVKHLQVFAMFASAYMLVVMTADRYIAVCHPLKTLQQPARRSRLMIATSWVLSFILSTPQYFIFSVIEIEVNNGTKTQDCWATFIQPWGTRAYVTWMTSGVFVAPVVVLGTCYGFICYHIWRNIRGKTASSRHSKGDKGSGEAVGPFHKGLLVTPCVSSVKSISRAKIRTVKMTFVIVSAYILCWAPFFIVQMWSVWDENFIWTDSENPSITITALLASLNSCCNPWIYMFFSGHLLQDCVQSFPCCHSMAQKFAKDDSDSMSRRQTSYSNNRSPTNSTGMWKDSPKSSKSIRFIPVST
T2 sequence (Q00788 whole entry): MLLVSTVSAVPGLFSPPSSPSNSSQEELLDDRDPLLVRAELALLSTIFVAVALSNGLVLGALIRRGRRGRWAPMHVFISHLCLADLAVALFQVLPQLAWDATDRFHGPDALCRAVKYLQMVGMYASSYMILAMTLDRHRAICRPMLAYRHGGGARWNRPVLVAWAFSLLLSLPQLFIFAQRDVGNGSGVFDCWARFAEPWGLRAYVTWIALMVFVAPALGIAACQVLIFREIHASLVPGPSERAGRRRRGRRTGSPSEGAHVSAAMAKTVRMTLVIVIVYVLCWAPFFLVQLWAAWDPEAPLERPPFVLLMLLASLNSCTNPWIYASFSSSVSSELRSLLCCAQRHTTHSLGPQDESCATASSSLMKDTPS

## O=C(Nc1ccc(C(=O)N2Cc3cccn3Cc3ccccc32)cc1)c1cccc(F)c1F [Example 1]
Rat Hepatic V1 Receptors
  IC50: 97 nM
Vasopressin V2; 30 mg/kg orally
  Osmolality: 1504 mOsm/kg
  Urine Volume: 1.1 ml/4 hrs
[1]
  IC50: 29 nM
Vasopressin V1; [2]
  % Inhibition: 88%
  Average Change: 4
Vasopressin V1; [3]
  % Inhibition: 51%
  Average Change: 16.5
Vasopressin V1; [4]
  % Inhibition: 37%
  Average Change: 21
Vasopressin V1; [5]
  % Inhibition: 33%
  Average Change: 22.5
Vasopressin V1; [6]
  % Inhibition: 13%
  Average Change: 29
Vasopressin V1; [7]
  % Inhibition: 19%
  Average Change: 27
Vasopressin V1; [8]
  % Inhibition: 4%
  Average Change: 32
Vasopressin V1; [9]
  % Inhibition: 85%
  Average Change: 8
Vasopressin V1; [10]
  % Inhibition: 62%
  Average Change: 20
Vasopressin V1; [11]
  % Inhibition: 49%
  Average Change: 27
Vasopressin V1; [12]
  % Inhibition: 29%
  Average Change: 37.5
Vasopressin V1; [13]
  % Inhibition: 9%
  Average Change: 48
Vasopressin V1; [14]
  % Inhibition: 25%
  Average Change: 39.5
Vasopressin V1; [15]
  % Inhibition: 25%
  Average Change: 39.5

## COc1ccccc1C(=O)Nc1ccc(C(=O)N2Cc3cccn3Cc3ccccc32)cc1 [Example 2, N-[4-(5H-Pyrrolo[2,1-c][1,4]benzodiazepin-10(11H)-ylcarbonyl)phenyl]-2-methoxybenzamide]
Rat Hepatic V1 Receptors
  IC50: 31 nM
Vasopressin V2; 10 mg/kg orally
  Osmolality: 1015 mOsm/kg
  Urine Volume: 9.3 ml/4 hrs
[1]
  IC50: 14 nM
Vasopressin V1; [2]
  % Inhibition: 79%
  Average Change: 6.5
Vasopressin V1; [3]
  % Inhibition: 74%
  Average Change: 8
Vasopressin V1; [4]
  % Inhibition: 66%
  Average Change: 10.5
Vasopressin V1; [5]
  % Inhibition: 69%
  Average Change: 9.5
Vasopressin V1; [6]
  % Inhibition: 55%
  Average Change: 14
Vasopressin V1; [7]
  % Inhibition: 47%
  Average Change: 16.5
Vasopressin V1; [8]
  % Inhibition: 44%
  Average Change: 17.5
Vasopressin V1; [9]
  % Inhibition: 84%
  Average Change: 8
Vasopressin V1; [10]
  % Inhibition: 74%
  Average Change: 13
Vasopressin V1; [11]
  % Inhibition: 70%
  Average Change: 15
Vasopressin V1; [12]
  % Inhibition: 70%
  Average Change: 15
Vasopressin V1; [13]
  % Inhibition: 56%
  Average Change: 22
Vasopressin V1; [14]
  % Inhibition: 50%
  Average Change: 25
Vasopressin V1; [15]
  % Inhibition: 37%
  Average Change: 31.5
Vasopressin V1; 30 mg/kg i.v.
  Max. % Inhibition: 74%
  Time (of max. % inhibition): 120 min

## Cc1ccsc1C(=O)Nc1ccc(C(=O)N2Cc3cccn3Cc3ccccc32)cc1 [Example 5, N-[4-(5H-pyrrolo[2,1-c][1,4]benzodiazepin10(11H)-ylcarbonyl)phenyl]-3-methyl-2-thiophenecarboxamide]
Rat Hepatic V1 Receptors
  IC50: 15 nM
Vasopressin V2; 10 mg/kg orally
  Osmolality: 1079 mOsm/kg
  Urine Volume: 8.5 ml/4 hrs
Vasopressin V2; 30 mg/kg orally
  Osmolality: 955 mOsm/kg
  Urine Volume: 7.7 ml/4 hrs
[1]
  IC50: 25 nM
Vasopressin V1; [2]
  % Inhibition: 83%
  Average Change: 5.5
Vasopressin V1; [3]
  % Inhibition: 76%
  Average Change: 7.5
Vasopressin V1; [4]
  % Inhibition: 71%
  Average Change: 9
Vasopressin V1; [5]
  % Inhibition: 59%
  Average Change: 13
Vasopressin V1; [6]
  % Inhibition: 62%
  Average Change: 12
Vasopressin V1; [7]
  % Inhibition: 46%
  Average Change: 17
Vasopressin V1; [8]
  % Inhibition: 5%
  Average Change: 30
Vasopressin V1; [9]
  % Inhibition: 72%
  Average Change: 13.5
Vasopressin V1; [10]
  % Inhibition: 78%
  Average Change: 10.5
Vasopressin V1; [11]
  % Inhibition: 83%
  Average Change: 8
Vasopressin V1; [12]
  % Inhibition: 69%
  Average Change: 15
Vasopressin V1; [13]
  % Inhibition: 60%
  Average Change: 19
Vasopressin V1; [14]
  % Inhibition: 51%
  Average Change: 23.5
Vasopressin V1; [15]
  % Inhibition: 18%
  Average Change: 39.5

## O=C(Nc1ccc(C(=O)N2Cc3cccn3Cc3ccccc32)cc1)c1ccccc1F [Example 8, N-[4-(5H-pyrrolo[2,1-c][1,4]benzodiazepin10(11H)-ylcarbonyl)phenyl]-2-fluorobenzamide]
Rat Hepatic V1 Receptors
  IC50: 56 nM
Vasopressin V2; 10 mg/kg orally
  Osmolality: 1211 mOsm/kg
  Urine Volume: 3.4 ml/4 hrs
Vasopressin V2; 30 mg/kg orally
  Osmolality: 1010 mOsm/kg
  Urine Volume: 9.1 ml/4 hrs
[1]
  IC50: 35 nM
Vasopressin V1; [2]
  % Inhibition: 61%
  Average Change: 14.5
Vasopressin V1; [3]
  % Inhibition: 61%
  Average Change: 14.5
Vasopressin V1; [4]
  % Inhibition: 73%
  Average Change: 10
Vasopressin V1; [5]
  % Inhibition: 69%
  Average Change: 11.5
Vasopressin V1; [6]
  % Inhibition: 62%
  Average Change: 14
Vasopressin V1; [7]
  % Inhibition: 59%
  Average Change: 15
Vasopressin V1; [8]
  % Inhibition: 51%
  Average Change: 18
Vasopressin V1; [9]
  % Inhibition: 54%
  Average Change: 23.5
Vasopressin V1; [10]
  % Inhibition: 58%
  Average Change: 21.5
Vasopressin V1; [11]
  % Inhibition: 66%
  Average Change: 17.5
Vasopressin V1; [12]
  % Inhibition: 70%
  Average Change: 15.5
Vasopressin V1; [13]
  % Inhibition: 46%
  Average Change: 28
Vasopressin V1; [14]
  % Inhibition: 44%
  Average Change: 29
Vasopressin V1; [15]
  % Inhibition: 46%
  Average Change: 28

## O=C(Cc1ccccc1Cl)Nc1ccc(C(=O)N2Cc3cccn3Cc3ccccc32)cc1 [Example 9, 2-Chloro-N-[4-(5H-pyrrolo[2,1-c][1,4]-benzodiazepin-10(11H)-ylcarbonyl)phenyl]benzeneacetamide]
Rat Hepatic V1 Receptors
  IC50: 7 nM
Vasopressin V2; 10 mg/kg orally
  Osmolality: 702 mOsm/kg
  Urine Volume: 5.8 ml/4 hrs
[1]
  IC50: 4 nM
Vasopressin V1; 10 mg/kg i.v.
  Max. % Inhibition: 95%
  Time (of max. % inhibition): 60 min

## O=C(Nc1ccc(C(=O)N2Cc3cccn3Cc3ccccc32)cc1)C1CC=CCC1 (stereo not shown) [Example 354, N-[4-(5H-Pyrrolo[2,1-c][1,4]benzodiazepin-10(11)-ylcarbonyl)phenyl]-3-cyclohexenecarboxamide]
Rat Hepatic V1 Receptors
  IC50: 12 nM
Vasopressin V2; 10 mg/kg orally
  Osmolality: 1010 mOsm/kg
  Urine Volume: 8.8 ml/4 hrs
[1]
  IC50: 7 nM

## O=C(CC1CCCCC1)Nc1ccc(C(=O)N2Cc3cccn3Cc3ccccc32)cc1 [Example 356, N-[4-(5H-Pyrrolo[2,1-c][1,4]benzodiazepin-10(11)ylcarbonyl)phenyl]-cyclohexylacetamide]
Rat Hepatic V1 Receptors
  IC50: 87 nM
Vasopressin V2; 10 mg/kg orally
  Osmolality: 1023 mOsm/kg
  Urine Volume: 5.8 ml/4 hrs
[1]
  IC50: 53 nM
